Assays:
[1] = system: Zika virus (Malaysia, strain P 6-740); test: Murine Zika virus model, treatment begun 1, 3, 5 or 7 dpi (Example 5); type: in vivo, AG129 mice; settings: for number of mice showing no disease signs: n=8; for weight change in grams between days 7 and 13 post-infection vs placebo: FIG. 10B
Experimental: Compound A was administered IM at 300 mg/kg/day in a volume of 0.05 ml saline.
Disease signs were assessed daily for each mouse and the date the disease sign was first noted was recorded. The graph represents the number of mice observed with each disease sign. […] As the time of administration of Compound A post-infection increased, the number of mice displaying no disease signs decreased (2 mice at 3 dpi, 1 mouse at 5 dpi and 0 mice at 7 dpi) and the total number of disease signs increased (13 disease signs at 3 dpi, 16 disease signs at 5 dpi and 23 disease signs at 7 dpi).

[2] = system: Zika virus (Malaysia, strain P 6-740); test: Murine Zika virus model, re-challenge on day 28 (Example 4); type: in vivo, AG129 mice
Experimental: In this example, the surviving mice from the study described in Example 3 were subject to re-challenge on day 28 post-infection. On day 28, the only surviving mice in a treatment group were in group 1 (7/8 mice), the normal controls (group 8, 8/8 mice) and the virus sham treated groups (group 2, 8/8 mice and group 6, 8/8/mice). All surviving mice (with the exception of normal controls) were administered a challenge of Zika virus identical to the initial challenge.
No animals in Groups 1, 2 and 6 were administered additional doses of Compound A on day 28 prior to or after re-challenge. In this experiment, the sham infected mice of groups 2 and 6 served as the control groups to analyze the effects of treatment of Compound A on immune system activation (note that mice in group 2 received the same 300 mg/kg/day dose of Compound A as the mice in group 1 on day 0). The survival of the mice was monitored through day 60 post-initial infection.

SMILES: Cl.Nc1ncnc2c([C@@H]3N[C@H](CO)[C@@H](O)[C@H]3O)c[nH]c12 [Compound A]
- time of first administration at which treatment is effective ([1]; 300 mg/kg/day IM): up to 5 days post-infection
- survival vs placebo ([1]; 300 mg/kg/day IM bid x 8 days, begun 1 dpi, p≤0.001): statistically significant improvements in survival
- viral RNA levels in serum on day 5 post-infection ([1]; 300 mg/kg/day IM, begun 1, 3, 5 or 7 dpi, FIG. 10C): not significantly decreased
- total number of disease signs ([1]; 300 mg/kg/day IM, begun 1 dpi): 6 disease signs
- number of mice showing no disease signs ([1]; 300 mg/kg/day IM, begun 1 dpi): 6 mice
- weight change in grams between days 7 and 13 post-infection vs placebo ([1]; 300 mg/kg/day IM, begun 1 dpi, p≤0.001): statistically significant decrease in weight loss
- percent weight change ([1]; 300 mg/kg/day IM, begun 1 dpi, through 27 dpi, FIG. 10A): essentially no weight change
- mortality curve and survival vs placebo ([1]; 300 mg/kg/day IM, begun 3 dpi): delayed the mortality curve of infected mice and increased survival
- total number of disease signs ([1]; 300 mg/kg/day IM, begun 3 dpi): 13 disease signs
- percentage weight loss ([1]; 300 mg/kg/day IM, begun 3 dpi, FIG. 10A): statistically significant decreases in percentage weight loss
- number of mice showing no disease signs ([1]; 300 mg/kg/day IM, begun 3 dpi): 2 mice
- weight change in grams between days 7 and 13 post-infection vs placebo ([1]; 300 mg/kg/day IM, begun 3 dpi, p≤0.001): statistically significant decrease in weight loss
- mortality curve and survival vs placebo ([1]; 300 mg/kg/day IM, begun 5 dpi): delayed the mortality curve of infected mice and increased survival
- total number of disease signs ([1]; 300 mg/kg/day IM, begun 5 dpi): 16 disease signs
- percentage weight loss ([1]; 300 mg/kg/day IM, begun 5 dpi, FIG. 10A): statistically significant decreases in percentage weight loss
- number of mice showing no disease signs ([1]; 300 mg/kg/day IM, begun 5 dpi): 1 mouse
- total number of disease signs ([1]; 300 mg/kg/day IM, begun 7 dpi): 23 disease signs
- number of mice showing no disease signs ([1]; 300 mg/kg/day IM, begun 7 dpi): 0 mice
- re-challenged mice surviving at day 60 ([2]; group 1 (300 mg/kg/day from day 0, 7 survivors), second Zika challenge day 28, no additional dosing): 7 mice
- survival after first Zika challenge on day 28 ([2]; group 2 (300 mg/kg/day from day 0, sham infected), no dosing at challenge): no survival was observed past day 51

From US11975003B2, “Methods and compositions for treatment of Zika virus infection” (priority 2016, dated 2024)
